The assay has as its target APJ receptor (Homo sapiens (Human), UniProt P35414). Put plainly: [35S]GTPγS binding assay on membranes from CHO cells stably expressing human APJ receptor. In kind it is biochemical. The note with it: membranes of CHO cells stably expressing human APJ receptor, means of several independent experiments, read-out: Activity hAPJ SPA EC50 IP. The essentials:
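EC50 values were obtained by non-linear regression of [35S]GTPγS (0.2 nM) binding after 90 min at RT, with nonspecific binding defined by 100 μM GTPγS. Reactions used human APJ–expressing CHO cell membranes on WGA PS beads in HEPES pH 7.5 buffer with 5 mM MgCl2, 200 mM NaCl, 3 μM GDP and 0.1% BSA.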
A general note: Binding of GTPγS marks nucleotide exchange on a G protein.

pEC50: −log10 of the molar value.

What is called pEC50 is the negative decadic logarithm of the EC50, by convention in mol/L.

APJ receptor, sequence (P35414 whole entry): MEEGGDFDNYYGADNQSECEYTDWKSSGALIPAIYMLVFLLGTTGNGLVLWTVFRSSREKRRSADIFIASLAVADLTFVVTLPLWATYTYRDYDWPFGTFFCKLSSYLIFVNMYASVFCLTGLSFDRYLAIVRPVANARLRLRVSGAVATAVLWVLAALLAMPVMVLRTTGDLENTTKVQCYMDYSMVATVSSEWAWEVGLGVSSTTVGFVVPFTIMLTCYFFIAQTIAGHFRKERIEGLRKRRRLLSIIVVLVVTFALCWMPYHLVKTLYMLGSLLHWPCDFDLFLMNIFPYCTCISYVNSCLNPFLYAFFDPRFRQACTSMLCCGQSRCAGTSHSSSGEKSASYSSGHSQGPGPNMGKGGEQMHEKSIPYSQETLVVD

With `COc1cccc(OC)c1-n1c(NS(=O)(=O)[C@@H](CCO)[C@H](C)c2ncc(C)cn2)nnc1-c1ccc(C)o1` (racemic) [Example 77.0], the pEC50 was 9.11.

Regarding `COc1cccc(OC)c1-n1c(NS(=O)(=O)[C@H](C)[C@@H](O)c2nccn2C)nnc1-c1ccc(C)o1` (single isomer, unassigned) [Example 297.0, (1S,2R)—N-(4-(2,6-Dimethoxyphenyl)-5-(5-methyl-2-furanyl)-4H-1,2,4-triazol-3-yl)-1-hydroxy-1-(1-methyl-1H-imidazol-2-yl)-2-propanesulfonamide or (1R,2S)—N-(4-(2,6-dimethoxyphenyl)-5-(5-methyl-2-furanyl)-4H-1,2,4-triazol-3-yl)-1-hydroxy-1-(1-methyl-1H-imidazol-2-yl)-2-propanesulfonamide], the pEC50 was 8.06.

In the case of `COc1ncnc(OC)c1-n1c(NS(=O)(=O)[C@@H](C)[C@H](C)c2ncc(F)cn2)nnc1-c1ccc(Br)o1` [Example 394.0, (2S,3R)-N-(5-(5-bromo-2-furanyl)-4-(4,6-dimethoxy-5-pyrimidinyl)-4H-1,2,4-triazol-3-yl)-3-(5-fluoro-2-pyrimidinyl)-2-butanesulfonamide], the pEC50 was 9.51.

On to `COc1ccccc1-n1c(NS(=O)(=O)[C@@H](C)Cc2ncc(F)cn2)nnc1-c1ccco1.COc1ccccc1-n1c(NS(=O)(=O)[C@H](C)Cc2ncc(F)cn2)nnc1-c1ccco1` (mixture of isomers) [Example 310.0, (2S)-1-(5-Fluoro-2-pyrimidinyl)-N-(5-(2-furanyl)-4-(2-methoxyphenyl)-4H-1,2,4-triazol-3-yl)-2-propanesulfonamide and (2R)-1-(5-fluoro-2-pyrimidinyl)-N-(5-(2-furanyl)-4-(2-methoxyphenyl)-4H-1,2,4-triazol-3-yl)-2-propanesulfonamide], for which the pEC50 was 7.08.

Regarding `COc1cccc(OC)c1-n1c(NS(=O)(=O)C[C@@](C)(F)c2ncc(F)cn2)nnc1-c1ccc(C)o1` (single isomer, unassigned) [Example 237.0, (2S)—N-(4-(2,6-Dimethoxyphenyl)-5-(5-methyl-2-furanyl)-4H-1,2,4-triazol-3-yl)-2-fluoro-2-(5-fluoro-2-pyrimidinyl)-1-propanesulfonamide or (2R)—N-(4-(2,6-dimethoxyphenyl)-5-(5-methyl-2-furanyl)-4H-1,2,4-triazol-3-yl)-2-fluoro-2-(5-fluoro-2-pyrimidinyl)-1-propanesulfonamide], the pEC50 is 9.24.

On to `COc1cccc(OC)c1-n1c(NS(=O)(=O)[C@H](C)[C@@H](O)c2ncc(F)cn2)nnc1-c1ccc(C)o1` (single isomer, unassigned) [Example 93.0, (1R,2S)—N-(4-(2,6-Dimethoxyphenyl)-5-(5-methyl-2-furanyl)-4H-1,2,4-triazol-3-yl)-1-(5-fluoro-2-pyrimidinyl)-1-hydroxy-2-propanesulfonamide or (1S,2R)—N-(4-(2,6-dimethoxyphenyl)-5-(5-methyl-2-furanyl)-4H-1,2,4-triazol-3-yl)-1-(5-fluoro-2-pyrimidinyl)-1-hydroxy-2-propanesulfonamide], for which the pEC50 was 9.85.

Consider `COc1cccc(OC)c1-n1c(NS(=O)(=O)[C@@H](C)[C@H](O)c2cn(C)cn2)nnc1-c1ccc(C)o1.COc1cccc(OC)c1-n1c(NS(=O)(=O)[C@H](C)[C@@H](O)c2cn(C)cn2)nnc1-c1ccc(C)o1` (mixture of isomers) [Example 301.0, (1R,2S)—N-(4-(2,6-Dimethoxyphenyl)-5-(5-methyl-2-furanyl)-4H-1,2,4-triazol-3-yl)-1-hydroxy-1-(1-methyl-1H-imidazol-4-yl)-2-propanesulfonamide and (1S,2R)—N-(4-(2,6-dimethoxyphenyl)-5-(5-methyl-2-furanyl)-4H-1,2,4-triazol-3-yl)-1-hydroxy-1-(1-methyl-1H-imidazol-4-yl)-2-propanesulfonamide], for which the pEC50 is 7.89.

Consider `COc1cccc(OC)c1-n1c(NS(=O)(=O)[C@H](C)[C@@H](O)c2ncn3ccccc23)nnc1-c1ccc(C)o1` (single isomer, unassigned) [Example 288.0, (1R,2S)—N-(4-(2,6-Dimethoxyphenyl)-5-(5-methyl-2-furanyl)-4H-1,2,4-triazol-3-yl)-1-hydroxy-1-imidazo[1,5-a]pyridin-1-yl-2-propanesulfonamide or (1S,2R)—N-(4-(2,6-dimethoxyphenyl)-5-(5-methyl-2-furanyl)-4H-1,2,4-triazol-3-yl)-1-hydroxy-1-imidazo[1,5-a]pyridin-1-yl-2-propanesulfonamide], for which the negative logarithm of the EC50 (pEC50) is 8.38.

For `COc1cccc(OC)c1-n1c(NS(=O)(=O)[C@H](C)[C@@H](O)c2ccnc3c2OCCC3)nnc1-c1ccc(C)o1` (single isomer, unassigned) [Example 293.0, (1R,2S)-1-(3,4-Dihydro-2H-pyrano[3,2-b]pyridin-8-yl)-N-(4-(2,6-dimethoxyphenyl)-5-(5-methyl-2-furanyl)-4H-1,2,4-triazol-3-yl)-1-hydroxy-2-propanesulfonamide or (1S,2R)-1-(3,4-dihydro-2H-pyrano[3,2-b]pyridin-8-yl)-N-(4-(2,6-dimethoxyphenyl)-5-(5-methyl-2-furanyl)-4H-1,2,4-triazol-3-yl)-1-hydroxy-2-propanesulfonamide], the pEC50 is 8.26.

Take `COc1cccc(OC)c1-n1c(NS(=O)(=O)CCc2ncc(Cl)cc2-c2cccnc2)nnc1-c1ccco1` [Example 221.0, 2-(5-Chloro-3,3′-bipyridin-2-yl)-N-(4-(2,6-dimethoxyphenyl)-5-(2-furanyl)-4H-1,2,4-triazol-3-yl)ethanesulfonamide]: the pEC50 was 9.52.

On to `COc1cccc(OC)c1-n1c(NS(=O)(=O)[C@@H]2C[C@H](O)CN(c3cnc(Cl)c(C#N)c3)C2)nnc1-c1ccc(C)o1` (mixture of isomers) [Example 322.0, (3S,5R)-1-(6-Chloro-5-cyano-3-pyridinyl)-N-(4-(2,6-dimethoxyphenyl)-5-(5-methyl-2-furanyl)-4H-1,2,4-triazol-3-yl)-5-hydroxy-3-piperidinesulfonamide and (3R,5S)-1-(6-chloro-5-cyano-3-pyridinyl)-N-(4-(2,6-dimethoxyphenyl)-5-(5-methyl-2-furanyl)-4H-1,2,4-triazol-3-yl)-5-hydroxy-3-piperidinesulfonamide], for which the pEC50 was 9.70.

Take `COc1cccc(OC)c1-n1c(NS(=O)(=O)[C@@H](C)Cc2ncc(C)cn2)nnc1-c1ccc(C)o1` (single isomer, unassigned) [Example 16.0, (2S)—N-(4-(2,6-dimethoxyphenyl)-5-(5-methyl-2-furanyl)-4H-1,2,4-triazol-3-yl)-1-(5-methyl-2-pyrimidinyl)-2-propanesulfonamide or (2R)—N-(4-(2,6-dimethoxyphenyl)-5-(5-methyl-2-furanyl)-4H-1,2,4-triazol-3-yl)-1-(5-methyl-2-pyrimidinyl)-2-propanesulfonamide]: the pEC50 was 9.66.

As to `COc1cccc(OC)c1-n1c(NS(=O)(=O)CCc2ccc(C#N)cn2)nnc1-c1ccco1` [Example 35.0, 2-(5-cyano-2-pyridinyl)-N-(4-(2,6-dimethoxyphenyl)-5-(2-furanyl)-4H-1,2,4-triazol-3-yl)ethanesulfonamide], the negative logarithm of the EC50 (pEC50) was 8.46.

With “(1R,2R)-N-(4-(2,6-dimethoxyphenyl)-5-(5-methyl-2-furanyl)-4H-1,2,4-triazol-3-yl)-1-hydroxy-1-(5-methyl-2-pyrimidinyl)-2-propanesulfonamide or (1S,2S)-N-(4-(2,6-dimethoxyphenyl)-5-(5-methyl-2-furanyl)-4H-1,2,4-triazol-3-yl)-1-hydroxy-1-(5-methyl-2-pyrimidinyl)-2-propanesulfonamide [Example 244.0]”, the pEC50 was 9.03.

In the case of `COc1cccc(OC)c1-n1c(NS(=O)(=O)[C@H](C)Cc2ccc(F)cn2)nnc1-c1ccco1` (single isomer, unassigned) [Example 25.0, (2R)—N-(4-(2,6-dimethoxyphenyl)-5-(2-furanyl)-4H-1,2,4-triazol-3-yl)-1-(5-fluoro-2-pyridinyl)-2-propanesulfonamide or (2S)—N-(4-(2,6-dimethoxyphenyl)-5-(2-furanyl)-4H-1,2,4-triazol-3-yl)-1-(5-fluoro-2-pyridinyl)-2-propanesulfonamide], the pEC50 was 9.43.

With `CCc1ccc(-c2nnc(NS(=O)(=O)[C@@H](C)Cc3ncc(F)cn3)n2-c2c(OC)cccc2OC)o1` (single isomer, unassigned) [Example 99.0, (2S)—N-(4-(2,6-Dimethoxyphenyl)-5-(5-ethyl-2-furanyl)-4H-1,2,4-triazol-3-yl)-1-(5-fluoro-2-pyrimidinyl)-2-propanesulfonamide or (2R)—N-(4-(2,6-dimethoxyphenyl)-5-(5-ethyl-2-furanyl)-4H-1,2,4-triazol-3-yl)-1-(5-fluoro-2-pyrimidinyl)-2-propanesulfonamide], the pEC50 was 9.00.

As to `COc1cccc(OC)c1-n1c(NS(=O)(=O)[C@H](C)[C@H](O)c2ccc(C#N)c(C)n2)nnc1-c1ccc(C)o1` (single isomer, unassigned) [Example 86.0], the pEC50 was 9.64.

Consider `COc1cccc(OC)c1-n1c(NS(=O)(=O)[C@@H]2CC[C@@H](O)[C@H](O)C2)nnc1-c1ccc(C)o1` (single isomer, unassigned) [Example 407.0], for which the pEC50 is 6.74.

As to `COc1cccc(OC)c1-n1c(NS(=O)(=O)[C@H](C)[C@@H](O)c2cscn2)nnc1-c1ccc(C)o1` (single isomer, unassigned) [Example 307.0, (1S,2R)—N-(4-(2,6-Dimethoxyphenyl)-5-(5-methyl-2-furanyl)-4H-1,2,4-triazol-3-yl)-1-hydroxy-1-(1,3-thiazol-4-yl)-2-propanesulfonamide or (1R,2S)—N-(4-(2,6-dimethoxyphenyl)-5-(5-methyl-2-furanyl)-4H-1,2,4-triazol-3-yl)-1-hydroxy-1-(1,3-thiazol-4-yl)-2-propanesulfonamide], the pEC50 was 7.55.

(Values after patent publication US10736883B2, “Triazole furan compounds as agonists of the APJ receptor” (AMGEN INC., priority 2016, dated 2020).)
